Counter-ions that a name gives are not always drawn. Like-named read-outs stand apart in the source and are kept apart here.
Test system: iCell cardiomyocytes (human iPSC-derived cardiomyocytes)
Assay: High-content imaging of cytotoxicity and mitochondrial integrity in iPSC-CMs
Assay type: cell-based
Details: Homo sapiens; for viability at 0.01 µM / activity at 0.01 µM / viability at 0.1 µM / activity at 0.1 µM / viability at 1 µM / activity at 1 µM / viability at 10 µM / activity at 10 µM / viability at 100 µM / activity at 100 µM: 0.00 µM = 100.00; for viability at 0.1 µM / activity at 0.1 µM: 0.10 µM
Summary of the method: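 Human iPSC-derived cardiomyocytes were seeded on gelatin-coated 384-well plates at 5,000 cells per well and maintained for 12 d. Test chemicals were added as 10μL of 5× solutions to final concentrations of 0.01 to 100μM. Cells were stained with Hoechst 33342 and MitoTracker™ Orange, fixed in formaldehyde, and imaged by confocal high-content microscopy at 10× magnification.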

[1] = Cardiomyocyte, 1.5 h, read-out: cm.cam.90min
[2] = Cardiomyocyte, 1.5 h, read-out: cm.mii.90min
[3] = Cardiomyocyte, 1.5 h, read-out: cm.mito.90min
[4] = Cardiomyocyte, 1.5 h, read-out: cm.tc.90min
[5] = Cardiomyocyte, 24 h, read-out: cm.cam.24hrs
[6] = Cardiomyocyte, 24 h, read-out: cm.mii.24hrs
[7] = Cardiomyocyte, 24 h, read-out: cm.mito.24hrs
[8] = Cardiomyocyte, 24 h, read-out: cm.tc.24hrs
[9] = iPSC-CM, 1.5 h, iPSC-CM, read-out: cm.cam.90min POD
[10] = iPSC-CM, 1.5 h, iPSC-CM, read-out: cm.mii.90min POD
[11] = iPSC-CM, 1.5 h, iPSC-CM, read-out: cm.mito.90min POD
[12] = iPSC-CM, 1.5 h, iPSC-CM, read-out: cm.tc.90min POD
[13] = iPSC-CM, 24 h, iPSC-CM, read-out: cm.cam.24hrs POD
[14] = iPSC-CM, 24 h, iPSC-CM, read-out: cm.mii.24hrs POD
[15] = iPSC-CM, 24 h, iPSC-CM, read-out: cm.mito.24hrs POD
[16] = iPSC-CM, 24 h, iPSC-CM, read-out: cm.tc.24hrs POD

O=S(=O)(O)Oc1ccc(-c2ccc(Cl)cc2)cc1 [4'-yl PCB 3 sulfate] showed a viability at 0.01 µM [1] of 90.6%, an activity at 0.01 µM [2] of 111% and an activity at 0.01 µM [3] of 90.4%. The viability at 0.01 µM [4] was 90.5%, the viability at 0.1 µM [1] was 97.2% and the activity at 0.1 µM [2] was 109%. It also gave an activity at 0.1 µM [3] of 97.2%, a viability at 0.1 µM [4] of 97.5% and a viability at 1 µM [1] of 101%. The activity at 1 µM [2] was 109%, the activity at 1 µM [3] was 101% and the viability at 1 µM [4] was 102%. The viability at 10 µM [1] was 102%, the activity at 10 µM [2] was 107% and the activity at 10 µM [3] was 102%. The viability at 10 µM [4] was 102%, the viability at 100 µM [1] was 96.5% and the activity at 100 µM [2] was 113%. It also gave an activity at 100 µM [3] of 96.7%, a viability at 100 µM [4] of 96.7% and a viability at 0.01 µM [5] of 97.3%. For the same compound, the activity at 0.01 µM [6] was 98.4%, the activity at 0.01 µM [7] was 95.5% and the viability at 0.01 µM [8] was 97.4%. For the same compound, the viability at 0.1 µM [5] was 105%, the activity at 0.1 µM [6] was 111% and the activity at 0.1 µM [7] was 106%. The viability at 0.1 µM [8] was 106%, the viability at 1 µM [5] was 107% and the activity at 1 µM [6] was 98.9%. The activity at 1 µM [7] was 108%, the viability at 1 µM [8] was 107% and the viability at 10 µM [5] was 102%. The activity at 10 µM [6] was 92%, the activity at 10 µM [7] was 101% and the viability at 10 µM [8] was 102%. The viability at 100 µM [5] was 104%, the activity at 100 µM [6] was 82.3% and the activity at 100 µM [7] was 103%. For the same compound, the viability at 100 µM [8] was 105%, the minimal effective concentration [9] was 100 µM and the minimal effective concentration [10] was 100 µM. For the same compound, the minimal effective concentration [11] was 100 µM, the minimal effective concentration [12] was 100 µM and the minimal effective concentration [13] was 100 µM. The minimal effective concentration [14] was 53.5 µM, the minimal effective concentration [15] was 100 µM and the minimal effective concentration [16] was 100 µM.
For O=C1C=CC(=O)C(c2ccc(Cl)cc2)=C1 [4-Cl-BQ, 2-(4-Chlorophenyl)benzo-2,5-quinone], the viability at 0.01 µM [1] was 103%, the activity at 0.01 µM [2] was 106% and the activity at 0.01 µM [3] was 103%. The viability at 0.01 µM [4] was 103%, the viability at 0.1 µM [1] was 96.5% and the activity at 0.1 µM [2] was 116%. The activity at 0.1 µM [3] was 95.9%, the viability at 0.1 µM [4] was 96.2% and the viability at 1 µM [1] was 100%. The activity at 1 µM [2] was 117%, the activity at 1 µM [3] was 100% and the viability at 1 µM [4] was 100%. For the same compound, the viability at 10 µM [1] was 103%, the activity at 10 µM [2] was 91.5% and the activity at 10 µM [3] was 102%. For the same compound, the viability at 10 µM [4] was 103%, the viability at 100 µM [1] was 29.9% and the activity at 100 µM [2] was 8.08%. The activity at 100 µM [3] was 0.09%, the viability at 100 µM [4] was 100% and the minimal effective concentration (Cardiomyocyte, 1.5 h, cardiomyocytes (cm), cam, 90 min, read-out: POD cm.cam.90min) was 37.6 µM. It also gave a minimal effective concentration (Cardiomyocyte, 1.5 h, cardiomyocytes (cm), mii, 90 min, read-out: POD cm.mii.90min) of 9.33 µM, a minimal effective concentration (Cardiomyocyte, 1.5 h, cardiomyocytes (cm), mito, 90 min, read-out: POD cm.mito.90min) of 38.7 µM and a minimal effective concentration (Cardiomyocyte, 1.5 h, cardiomyocytes (cm), tc, 90 min, read-out: POD cm.tc.90min) of 100 µM. The viability at 0.01 µM [5] was 92.6%, the activity at 0.01 µM [6] was 100% and the activity at 0.01 µM [7] was 89.4%. For the same compound, the viability at 0.01 µM [8] was 92.8%, the viability at 0.1 µM [5] was 98.4% and the activity at 0.1 µM [6] was 110%. The activity at 0.1 µM [7] was 96.5%, the viability at 0.1 µM [8] was 99.1% and the viability at 1 µM [5] was 105%. For the same compound, the activity at 1 µM [6] was 97.3%, the activity at 1 µM [7] was 103% and the viability at 1 µM [8] was 105%. The viability at 10 µM [5] was 51.1%, the activity at 10 µM [6] was 128% and the activity at 10 µM [7] was 50.9%. It also gave a viability at 10 µM [8] of 50.4%, a viability at 100 µM [5] of 66.6% and an activity at 100 µM [6] of 0.9%. For the same compound, the activity at 100 µM [7] was 0.05%, the viability at 100 µM [8] was 100% and the minimal effective concentration (Cardiomyocyte, 24 h, cardiomyocytes (cm), cam, 24 hrs, read-out: POD cm.cam.24hrs) was 0.06 µM. For the same compound, the minimal effective concentration (Cardiomyocyte, 24 h, cardiomyocytes (cm), mii, 24 hrs, read-out: POD cm.mii.24hrs) was 46.4 µM, the minimal effective concentration (Cardiomyocyte, 24 h, cardiomyocytes (cm), mito, 24 hrs, read-out: POD cm.mito.24hrs) was 3.85 µM and the minimal effective concentration (Cardiomyocyte, 24 h, cardiomyocytes (cm), tc, 24 hrs, read-out: POD cm.tc.24hrs) was 100 µM. It also gave a minimal effective concentration [9] of 37.6 µM, a minimal effective concentration [10] of 9.33 µM and a minimal effective concentration [11] of 38.7 µM. It also gave a minimal effective concentration [12] of 100 µM, a minimal effective concentration [13] of 0.06 µM and a minimal effective concentration [14] of 46.4 µM. The minimal effective concentration [15] was 3.85 µM and the minimal effective concentration [16] was 100 µM.
With Oc1ccc(-c2cccc(Cl)c2)cc1Cl [4-OH PCB11] the viability at 0.01 µM [1] was 94.9%, the activity at 0.01 µM [2] was 115% and the activity at 0.01 µM [3] was 94.7%. It also gave a viability at 0.01 µM [4] of 94.7%, a viability at 0.1 µM [1] of 95% and an activity at 0.1 µM [2] of 108%. It also gave an activity at 0.1 µM [3] of 95%, a viability at 0.1 µM [4] of 95% and a viability at 1 µM [1] of 99.1%. It also gave an activity at 1 µM [2] of 113%, an activity at 1 µM [3] of 98.6% and a viability at 1 µM [4] of 98.8%. It also gave a viability at 10 µM [1] of 106%, an activity at 10 µM [2] of 93.6% and an activity at 10 µM [3] of 106%. For the same compound, the viability at 10 µM [4] was 106%, the viability at 100 µM [1] was 0.0234% and the activity at 100 µM [2] was 157%. For the same compound, the activity at 100 µM [3] was 0.0462%, the viability at 100 µM [4] was 0.09% and the viability at 0.01 µM [5] was 90.8%. The activity at 0.01 µM [6] was 101%, the activity at 0.01 µM [7] was 86.2% and the viability at 0.01 µM [8] was 90.8%. The viability at 0.1 µM [5] was 100%, the activity at 0.1 µM [6] was 111% and the activity at 0.1 µM [7] was 97.6%. For the same compound, the viability at 0.1 µM [8] was 99.9%, the viability at 1 µM [5] was 98.4% and the activity at 1 µM [6] was 100%. It also gave an activity at 1 µM [7] of 96.4%, a viability at 1 µM [8] of 98.7% and a viability at 10 µM [5] of 93.1%. For the same compound, the activity at 10 µM [6] was 96.5%, the activity at 10 µM [7] was 90.8% and the viability at 10 µM [8] was 93.5%. It also gave a viability at 100 µM [5] of 0.0471%, an activity at 100 µM [6] of 1.84% and an activity at 100 µM [7] of 0.024%. For the same compound, the viability at 100 µM [8] was 0.11%, the minimal effective concentration [9] was 27.7 µM and the minimal effective concentration [10] was 32.7 µM. For the same compound, the minimal effective concentration [11] was 40.1 µM, the minimal effective concentration [12] was 36.2 µM and the minimal effective concentration [13] was 8.57 µM. It also gave a minimal effective concentration [14] of 43.2 µM, a minimal effective concentration [15] of 7.94 µM and a minimal effective concentration [16] of 8.62 µM.

— article PMC7377239, “Cardiovascular Effects of Polychlorinated Biphenyls and Their Major Metabolites” (Environmental Health Perspectives, 2020)
